Laboratory results published in PMC4125136, “A Novel Dual Allosteric Activation Mechanism of Escherichia coli ADP-Glucose Pyrophosphorylase: The Role of Pyruvate” (PLoS ONE, 2014).
Values joined by “and” are separate entries in the source; they are usually repeats but may differ in a detail not shown here. Identical values can stand only once. Like-named read-outs stand apart in the source and are kept apart here.

Assays:
E. coli ADP-Glc PPase [1] = target: T1, E. coli ADP-Glc PPase (Escherichia coli, UniProt P0A6V1); test: ADP-Glc synthesis assay (Pi formation, Malachite Green) with Hill-equation kinetic characterization; type: biochemical; conditions: for IC50: read-out: I 0.5 for AMP
T1 construct: made in house; host or cells: E. coli BL21 (DE3)
Description: Synthesis of ADP-Glc was assayed by following the formation of Pi (after hydrolysis of pyrophosphate by inorganic pyrophosphatase) as previously described. Unless otherwise stated, a 50 µl reaction mixture contained 100 mM HEPES (pH 8.0), 10 mM MgCl2, 1.5 mM ATP, 0.2 mg/ml bovine serum albumin, 0.5 mU/µl yeast inorganic pyrophosphatase, and the given amount of enzyme. Assays were initiated with 1 mM Glc-1P. If mentioned, a given amount of Pyr, Fru-1,6-P2, and/or AMP was also included. After incubation for 10 min at 37°C, addition of Malachite Green reagent terminated the reaction. The complex formed with the released Pi was measured at 630 nm with an ELISA EMax detector (Molecular Devices). Sodium pyrophosphate was used as standard. One unit of enzyme activity was defined as the amount producing of 1 µmol of product in 1 min under the specified conditions.
Data of enzyme activity were plotted versus effector concentration. Kinetic parameters from the Hill equation such as Hill coefficient (n H), maximal velocity (V max), as well as the activator substrate or inhibitor concentrations giving 50% of the maximal activation (A 0.5), velocity (S 0.5), or inhibition (I 0.5), were acquired by fitting the data with a non-linear least-squares algorithm using the program Origin 7.0 (OriginLab). Parameters are the mean of at least three independent sets of data, reproducible within ±10%. Sample standard deviations of the data were calculated from the Hill equation fitting by using the Levenberg–Marquardt method.

E. coli ADP-Glc PPase [2] = target: T1, E. coli ADP-Glc PPase; conditions: cited from earlier work
[3] = system: A. tumefaciens ADP-Glc PPase; design: method as in PMID 9721178; conditions: cited from earlier work
[4] = F. 50 mM Pyr +150 µM Fru-1,6-P2
[5] = 50 µM AMP and 100 µM Fru-1,6-P2 (Figure 5)

T1 sequence (P0A6V1 whole entry): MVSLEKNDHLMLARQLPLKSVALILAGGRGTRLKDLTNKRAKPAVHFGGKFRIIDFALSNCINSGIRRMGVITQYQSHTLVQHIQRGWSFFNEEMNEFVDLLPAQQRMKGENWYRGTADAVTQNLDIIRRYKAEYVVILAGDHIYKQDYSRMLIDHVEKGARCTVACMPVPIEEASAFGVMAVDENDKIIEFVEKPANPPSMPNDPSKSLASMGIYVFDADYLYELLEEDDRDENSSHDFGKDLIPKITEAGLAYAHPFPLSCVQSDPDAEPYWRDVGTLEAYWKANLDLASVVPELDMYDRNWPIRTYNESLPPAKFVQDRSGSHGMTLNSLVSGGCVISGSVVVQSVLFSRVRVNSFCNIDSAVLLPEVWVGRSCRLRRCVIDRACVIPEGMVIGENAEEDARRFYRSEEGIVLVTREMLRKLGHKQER

Nc1ncnc2c1ncn2[C@@H]1O[C@H](COP(=O)(O)O)[C@@H](O)[C@H]1O [AMP]
n H of AMP inhibition (E. coli ADP-Glc PPase [1]; 100 µM Fru-1,6-P2, absence of Pyr): 1.7 | IC50 (E. coli ADP-Glc PPase [1]; 100 µM Fru-1,6-P2, absence of Pyr (Figure 4)): 30 µM | remaining activity at maximum inhibition (E. coli ADP-Glc PPase [1]; 100 µM Fru-1,6-P2, both in absence and presence of 20 mM Pyr): around 10% | n H of AMP inhibition (E. coli ADP-Glc PPase [1]; 100 µM Fru-1,6-P2, presence of 20 mM Pyr): 2.4 | IC50 (E. coli ADP-Glc PPase [1]; 100 µM Fru-1,6-P2, presence of 20 mM Pyr (Figure 4)): 110 µM

Nc1ncnc2c1ncn2[C@@H]1O[C@H](COP(=O)(O)OP(=O)(O)OP(=O)(O)O)[C@@H](O)[C@H]1O [ATP-Mg]
ATP-Mg S 0.5 (E. coli ADP-Glc PPase [1]; A. No effector): 6.49 ± 0.21 mM | ATP-Mg n H (E. coli ADP-Glc PPase [1]; A. No effector): 1.5 | ATP-Mg S 0.5 (E. coli ADP-Glc PPase [1]; B. 25 mM Pyr): 1.67 ± 0.08 mM | ATP-Mg n H (E. coli ADP-Glc PPase [1]; B. 25 mM Pyr): 2.5 | ATP-Mg S 0.5 (E. coli ADP-Glc PPase [1]; C. 50 mM Pyr): 1.05 ± 0.06 mM | ATP-Mg n H (E. coli ADP-Glc PPase [1]; C. 50 mM Pyr): 2.2 | ATP-Mg S 0.5 (E. coli ADP-Glc PPase [1]; D. 25 mM Pyr +10 µM Fru-1,6-P2): 0.99 ± 0.07 mM | ATP-Mg n H (E. coli ADP-Glc PPase [1]; D. 25 mM Pyr +10 µM Fru-1,6-P2): 3.6 | ATP-Mg S 0.5 (E. coli ADP-Glc PPase [1]; E. 10 µM Fru-1,6-P2): 5.02 ± 0.25 mM | ATP-Mg n H (E. coli ADP-Glc PPase [1]; E. 10 µM Fru-1,6-P2): 2.1 | ATP-Mg S 0.5 (E. coli ADP-Glc PPase [1]; [4]): 0.37 ± 0.03 mM | ATP-Mg n H (E. coli ADP-Glc PPase [1]; [4]): 2.4 | ATP-Mg S 0.5 (E. coli ADP-Glc PPase [1]; G. 150 µM Fru-1,6-P2): 1.31 ± 0.09 mM | ATP-Mg n H (E. coli ADP-Glc PPase [1]; G. 150 µM Fru-1,6-P2): 3.2 | ATP-Mg S 0.5 (E. coli ADP-Glc PPase [1]; I. 2 mM Fru-1,6-P2): 0.43 ± 0.02 mM | ATP-Mg n H (E. coli ADP-Glc PPase [1]; I. 2 mM Fru-1,6-P2): 2.1 | ATP-Mg S 0.5 (E. coli ADP-Glc PPase [1]; J. 50 mM Pyr +2 mM Fru-1,6-P2): 0.19 ± 0.02 mM | ATP-Mg n H (E. coli ADP-Glc PPase [1]; J. 50 mM Pyr +2 mM Fru-1,6-P2): 1.4

O=C(COP(=O)(O)O)[C@@H](O)[C@H](O)[C@H](O)COP(=O)(O)O [Fru-1,6-P2, Fructose-1,6-bisphosphate]
A 0.5 for Fru-1,6-P2 (E. coli ADP-Glc PPase [2]): sub-millimolar range | increase of enzyme activity (E. coli ADP-Glc PPase [2]): ~50 fold | improvement of apparent affinity of the enzyme for Pyr (E. coli ADP-Glc PPase [1]; 30 µM Fru-1,6-P2 (Figure 1)): 8.4 fold | V max (E. coli ADP-Glc PPase [1]; E. 10 µM Fru-1,6-P2): 6.21±0.19 U/mg | V max (E. coli ADP-Glc PPase [1]; G. 150 µM Fru-1,6-P2): 63±4 U/mg | V max (E. coli ADP-Glc PPase [1]; I. 2 mM Fru-1,6-P2): 108±6 U/mg | EC50 (E. coli ADP-Glc PPase [1]; absence of Pyr (Figure 3A), read-out: A 0.5 for Fru-1,6-P2): 120 µM | EC50 (E. coli ADP-Glc PPase [1]; as stated in legend of Figure 5, read-out: A 0.5 for Fru-1,6-P2): 100 µM | decrease of Pyr A 0.5 (E. coli ADP-Glc PPase [1]; at 50 µM Fru-1,6-P2): 5 fold | EC50 (E. coli ADP-Glc PPase [1]; presence of 2.5 mM Pyr (Figure 3A), read-out: A 0.5 for Fru-1,6-P2): 70 µM

O=P(O)(O)OC1O[C@H](CO)[C@@H](O)[C@H](O)[C@H]1O (stereo partly drawn) [Glc-1P]
Glc-1P S 0.5 (E. coli ADP-Glc PPase [1]; A. No effector): 0.95 ± 0.07 mM | Glc-1P n H (E. coli ADP-Glc PPase [1]; A. No effector): 1.1 | Glc-1P S 0.5 (E. coli ADP-Glc PPase [1]; B. 25 mM Pyr): 0.57 ± 0.05 mM | Glc-1P n H (E. coli ADP-Glc PPase [1]; B. 25 mM Pyr): 1.0 | Glc-1P S 0.5 (E. coli ADP-Glc PPase [1]; C. 50 mM Pyr): 0.37 ± 0.02 mM | Glc-1P n H (E. coli ADP-Glc PPase [1]; C. 50 mM Pyr): 0.9 | Glc-1P S 0.5 (E. coli ADP-Glc PPase [1]; D. 25 mM Pyr +10 µM Fru-1,6-P2): 0.23 ± 0.02 mM | Glc-1P n H (E. coli ADP-Glc PPase [1]; D. 25 mM Pyr +10 µM Fru-1,6-P2): 1.3 | Glc-1P S 0.5 (E. coli ADP-Glc PPase [1]; E. 10 µM Fru-1,6-P2): 0.77 ± 0.04 mM | Glc-1P n H (E. coli ADP-Glc PPase [1]; E. 10 µM Fru-1,6-P2): 1.0 | Glc-1P S 0.5 (E. coli ADP-Glc PPase [1]; [4]): 0.09 ± 0.01 mM | Glc-1P n H (E. coli ADP-Glc PPase [1]; [4]): 1.1 | Glc-1P S 0.5 (E. coli ADP-Glc PPase [1]; G. 150 µM Fru-1,6-P2): 0.12 ± 0.01 mM | Glc-1P n H (E. coli ADP-Glc PPase [1]; G. 150 µM Fru-1,6-P2): 1.2 | Glc-1P S 0.5 (E. coli ADP-Glc PPase [1]; I. 2 mM Fru-1,6-P2): 0.09 ± 0.01 mM | Glc-1P n H (E. coli ADP-Glc PPase [1]; I. 2 mM Fru-1,6-P2): 1.3 | Glc-1P S 0.5 (E. coli ADP-Glc PPase [1]; J. 50 mM Pyr +2 mM Fru-1,6-P2): 0.11 ± 0.01 mM | Glc-1P n H (E. coli ADP-Glc PPase [1]; J. 50 mM Pyr +2 mM Fru-1,6-P2): 1.0

Cc1ncc(COP(=O)(O)O)c(C=O)c1O [PLP, pyridoxal-5′-phosphate]
EC50 (E. coli ADP-Glc PPase [1]; absence of Pyr (Figure 3B), read-out: A 0.5 for PLP): 2.7 µM | EC50 (E. coli ADP-Glc PPase [1]; presence of 10 mM Pyr (Figure 3B), read-out: A 0.5 for PLP): 1 µM

CC(=O)C(=O)O [Pyr, pyruvate]
EC50 (E. coli ADP-Glc PPase [2]; weak activation, read-out: A 0.5 for Pyr): > 10000 µM | Pyr activation [3]: 5 fold | EC50 ([3]; read-out: A 0.5 for Pyr): 130 µM | activation of the partially inhibited enzyme (E. coli ADP-Glc PPase [1]; [5]): 4 fold | nH of Pyr activation (E. coli ADP-Glc PPase [1]; [5]): 1.2 | EC50 (E. coli ADP-Glc PPase [1]; 50 µM AMP and 100 µM Fru-1,6-P2 (Figure 5), read-out: A 0.5 for Pyr): 2760 µM | absolute activity (reference for relative activity, Figure 4) (E. coli ADP-Glc PPase [1]; 20 mM Pyr with 100 µM Fru-1,6-P2, control without Pyr 31.2 U/mg): 61.8 U/mg | decrease of apparent affinity for AMP (E. coli ADP-Glc PPase [1]; 20 mM Pyr, 100 µM Fru-1,6-P2): 3 fold | enzyme more active if Pyr was present (relative activities) (E. coli ADP-Glc PPase [1]; 20 mM Pyr, 100 µM Fru-1,6-P2, 0.05–0.15 mM AMP range): up to 3 fold | increase of affinity for Glc-1P (E. coli ADP-Glc PPase [1]; 25 mM Pyr combined with 10 µM Fru-1,6-P2, compared to absence of any effector): 4.1 fold | lowering of S 0.5 for ATP (E. coli ADP-Glc PPase [1]; 25 mM Pyr combined with 10 µM Fru-1,6-P2, vs no effector): 6.6 fold | lowering of S 0.5 for Glc-1P (E. coli ADP-Glc PPase [1]; 25 mM Pyr vs no effector): 1.7 fold | reduction of S 0.5 for ATP (E. coli ADP-Glc PPase [1]; 25 mM Pyr vs no effector): 3.9 fold | lowering of S 0.5 for Glc-1P (E. coli ADP-Glc PPase [1]; 50 mM Pyr vs no effector): 2.6 fold | reduction of S 0.5 for ATP (E. coli ADP-Glc PPase [1]; 50 mM Pyr vs no effector): 6.2 fold | increase of enzyme activity (E. coli ADP-Glc PPase [1]; 100 mM Pyr (highest concentration tested), no other effector): 3.3 fold | V max (E. coli ADP-Glc PPase [1]; B. 25 mM Pyr): 3.93±0.21 U/mg | V max (E. coli ADP-Glc PPase [1]; C. 50 mM Pyr): 5.31±0.19 U/mg | V max (E. coli ADP-Glc PPase [1]; D. 25 mM Pyr +10 µM Fru-1,6-P2): 31±2 U/mg | V max (E. coli ADP-Glc PPase [1]; [4]): 104±5 U/mg | A 0.5 for Pyr (E. coli ADP-Glc PPase [1]; Figure 2, at increasing concentrations of Fru-1,6-P2): low mM range | V max (E. coli ADP-Glc PPase [1]; J. 50 mM Pyr +2 mM Fru-1,6-P2): 110±5 U/mg | increase in V max by Pyr (E. coli ADP-Glc PPase [1]; Pyr alone): ~4 fold and 5 fold | nH of Pyr activation (E. coli ADP-Glc PPase [1]; absence of any other regulatory effector (Figure 1)): 1.03 | EC50 (E. coli ADP-Glc PPase [1]; absence of any other regulatory effector (Figure 1), read-out: A 0.5 for Pyr): 25000 µM | EC50 (E. coli ADP-Glc PPase [1]; at 50 µM Fru-1,6-P2, read-out: A 0.5 for Pyr): 5000 µM | maximal activation by Pyr (E. coli ADP-Glc PPase [1]; in presence of 10 µM or 30 µM Fru-1,6-P2 (Figure 1)): ~6 fold | EC50 (E. coli ADP-Glc PPase [1]; presence of 1 µM PLP (data not shown), read-out: A 0.5 for Pyr): 3700 µM
